Results as given in EP0908457B1, “3-(1,2-benzisothiazol- and isoxazol-5-Y1)-2,4(1H,3H)-pyrimidinedione or thione and 3-(1,2-benzisothiazol- and isoxazol-5-y1)-4(3H)-pyrimidinone or thione herbicidal agents” (BASF AKTIENGESELLSCHAFT, priority 1997, dated 1999).

Tests used:
[1] = test system: Cyperus serotinus, Rottb.; experiment: Preemergence weed control under flooded paddy conditions, CYPSE (Flatsedge); format: in vivo; conditions: for herbicidal effect rating, CYPSE: preemergence, rated three to four weeks after treatment; for CYPSE: preemergence weeds, herbicidal effect rating 0-9, three to four weeks after treatment; on herbicidal effect rating, CYPSE: meaning of each grade not given here
Cyperus iria = experiment: Preemergence weed control under flooded paddy conditions, CYPIR (Rice Flatsedge); format: in vivo; conditions: flooded paddy; for herbicidal effect rating, CYPIR: preemergence, rated three to four weeks after treatment; for CYPIR: preemergence weeds, herbicidal effect rating 0-9, three to four weeks after treatment; on herbicidal effect rating, CYPIR: meaning of each grade not given here
[2] = test system: Echinochloa oryzoides (Ard.) Fritsch.; experiment: Preemergence weed control under flooded paddy conditions, ECHORC (Watergrass (Calif.)); format: in vivo; conditions: flooded paddy; for herbicidal effect rating, ECHORC: preemergence, rated three to four weeks after treatment; for ECHORC: preemergence weeds, herbicidal effect rating 0-9, three to four weeks after treatment; on herbicidal effect rating, ECHORC: meaning of each grade not given here
[3] = test system: Oryza sativa, (L.) Tebonnet; experiment: Rice tolerance to post-transplant applications under flooded paddy conditions (Example 187), ORYSAT (Rice, Tebonnet); conditions: for herbicidal effect rating, ORYSAT (rice tolerance): rated three to four weeks after treatment; for ORYSAT: herbicidal effect rating 0-9, three to four weeks after treatment
Sagittaria pygmaea, L. = experiment: Preemergence weed control under flooded paddy conditions, SAGPY (Arrowhead (Pygmaea)); format: in vivo; conditions: flooded paddy; for herbicidal effect rating, SAGPY: preemergence, rated three to four weeks after treatment; for SAGPY: preemergence weeds, herbicidal effect rating 0-9, three to four weeks after treatment; on herbicidal effect rating, SAGPY: meaning of each grade not given here
[4] = test system: Monochoria vaginalis, Presl.; experiment: Preemergence weed control under flooded paddy conditions, MOOVA (Monochoria); format: in vivo; conditions: flooded paddy; for herbicidal effect rating, MOOVA: preemergence, rated three to four weeks after treatment; for MOOVA: preemergence weeds, herbicidal effect rating 0-9, three to four weeks after treatment; on herbicidal effect rating, MOOVA: meaning of each grade not given here

CCc1ccc(OC(C)C(=O)OC)c(-c2nsc3ccc(-n4c(=O)cc(C(F)(F)F)n(C)c4=O)cc23)c1 (stereo not shown) [Example 28, Methyl 2-{2-{5-[3,6-dihydro-3-methyl-2,6-dioxo-4-(trifluoromethyl)-1(2H)-pyrimidinyl]-1,2-benzisothiazol-3-yl}-4-ethylphenoxy}propionate]
herbicidal effect rating, CYPSE ([1]; 0.0313 kg/ha): 0.0
herbicidal effect rating, CYPSE ([1]; 0.0625 kg/ha): 0.0
herbicidal effect rating, CYPSE ([1]; 0.1250 kg/ha): 0.0
herbicidal effect rating, CYPSE ([1]; 0.2500 kg/ha): 4.0
herbicidal effect rating, CYPIR (Cyperus iria; 0.0313 kg/ha): 2.0
herbicidal effect rating, CYPIR (Cyperus iria; 0.0625 kg/ha): 4.0
herbicidal effect rating, CYPIR (Cyperus iria; 0.1250 kg/ha): 6.0
herbicidal effect rating, CYPIR (Cyperus iria; 0.2500 kg/ha): 9.0
herbicidal effect rating, ECHORC ([2]; 0.0313 kg/ha): 8.0
herbicidal effect rating, ECHORC ([2]; 0.0625 kg/ha): 9.0
herbicidal effect rating, ECHORC ([2]; 0.1250 kg/ha): 9.0
herbicidal effect rating, ECHORC ([2]; 0.2500 kg/ha): 9.0
herbicidal effect rating, ORYSAT (rice tolerance) ([3]; 0.0313 kg/ha): 3.0
herbicidal effect rating, ORYSAT (rice tolerance) ([3]; 0.0625 kg/ha): 4.0
herbicidal effect rating, ORYSAT (rice tolerance) ([3]; 0.1250 kg/ha): 7.0
herbicidal effect rating, ORYSAT (rice tolerance) ([3]; 0.2500 kg/ha): 9.0
herbicidal effect rating, SAGPY (Sagittaria pygmaea, L.; 0.0313 kg/ha): 0.0
herbicidal effect rating, SAGPY (Sagittaria pygmaea, L.; 0.0625 kg/ha): 2.0
herbicidal effect rating, SAGPY (Sagittaria pygmaea, L.; 0.1250 kg/ha): 4.0
herbicidal effect rating, SAGPY (Sagittaria pygmaea, L.; 0.2500 kg/ha): 8.0
herbicidal effect rating, MOOVA ([4]; 0.0313 kg/ha): 8.0
herbicidal effect rating, MOOVA ([4]; 0.0625 kg/ha): 9.0
herbicidal effect rating, MOOVA ([4]; 0.1250 kg/ha): 9.0
herbicidal effect rating, MOOVA ([4]; 0.2500 kg/ha): 9.0

CN(C)/N=C/c1nsc2ccc(-n3c(=O)cc(C(F)(F)F)n(C)c3=O)cc12 [Example 409, 1,2-Benzisothiazole-3-carboxaldehyde, 5-[3,6-dihydro-3-methyl-2,6-dioxo-4-(trifluoromethyl)-1(2H)-pyrimidinyl]-, 3-(dimethylhydrazone), (E)-]
CYPSE ([1]; 0.0320 kg/ha): 2.0
CYPSE ([1]; 0.0620 kg/ha): 5.0
CYPSE ([1]; 0.1250 kg/ha): 9.0
CYPSE ([1]; 0.2500 kg/ha): 9.0
CYPIR (Cyperus iria; 0.0320 kg/ha): 7.0
CYPIR (Cyperus iria; 0.0620 kg/ha): 9.0
CYPIR (Cyperus iria; 0.1250 kg/ha): 9.0
CYPIR (Cyperus iria; 0.2500 kg/ha): 9.0
ECHORC ([2]; 0.0320 kg/ha): 3.0
ECHORC ([2]; 0.0620 kg/ha): 4.0
ECHORC ([2]; 0.1250 kg/ha): 9.0
ECHORC ([2]; 0.2500 kg/ha): 9.0
ORYSAT ([3]; 0.0320 kg/ha): 3.0
ORYSAT ([3]; 0.0620 kg/ha): 5.0
ORYSAT ([3]; 0.1250 kg/ha): 7.0
ORYSAT ([3]; 0.2500 kg/ha): 9.0
SAGPY (Sagittaria pygmaea, L.; 0.0320 kg/ha): 2.0
SAGPY (Sagittaria pygmaea, L.; 0.0620 kg/ha): 4.0
SAGPY (Sagittaria pygmaea, L.; 0.1250 kg/ha): 7.0
SAGPY (Sagittaria pygmaea, L.; 0.2500 kg/ha): 9.0
MOOVA ([4]; 0.0320 kg/ha): 9.0
MOOVA ([4]; 0.0620 kg/ha): 9.0
MOOVA ([4]; 0.1250 kg/ha): 9.0
MOOVA ([4]; 0.2500 kg/ha): 9.0

CN(c1ccc(-c2nsc3ccc(-n4c(=O)cc(C(F)(F)F)n(C)c4=O)cc23)cc1)S(C)(=O)=O [Example 430, Methanesulfonanilide, 4'-{5-[3,6-dihydro-3-methyl-2,6-dioxo-4-(trifluoromethyl)-1(2H)-pyrimidinyl]-1,2-benzisothiazol-3-yl}-N-methyl-]
CYPSE ([1]; 0.0320 kg/ha): 0.0
CYPSE ([1]; 0.0620 kg/ha): 0.0
CYPSE ([1]; 0.1250 kg/ha): 2.0
CYPSE ([1]; 0.2500 kg/ha): 7.0
CYPIR (Cyperus iria; 0.0320 kg/ha): 2.0
CYPIR (Cyperus iria; 0.0620 kg/ha): 6.0
CYPIR (Cyperus iria; 0.1250 kg/ha): 7.0
CYPIR (Cyperus iria; 0.2500 kg/ha): 6.0
ECHORC ([2]; 0.0320 kg/ha): 5.0
ECHORC ([2]; 0.0620 kg/ha): 5.0
ECHORC ([2]; 0.1250 kg/ha): 7.0
ECHORC ([2]; 0.2500 kg/ha): 9.0
ORYSAT ([3]; 0.0320 kg/ha): 3.0
ORYSAT ([3]; 0.0620 kg/ha): 2.0
ORYSAT ([3]; 0.1250 kg/ha): 4.0
ORYSAT ([3]; 0.2500 kg/ha): 3.0
SAGPY (Sagittaria pygmaea, L.; 0.1250 kg/ha): 6.0
SAGPY (Sagittaria pygmaea, L.; 0.2500 kg/ha): 7.0
MOOVA ([4]; 0.0320 kg/ha): 9.0
MOOVA ([4]; 0.0620 kg/ha): 9.0
MOOVA ([4]; 0.1250 kg/ha): 9.0
MOOVA ([4]; 0.2500 kg/ha): 9.0

Cc1ccc(OCC(=O)N(C)S(C)(=O)=O)c(-c2nsc3ccc(-n4c(=O)cc(C(F)(F)F)n(C)c4=O)cc23)c1 [Example 437, Acetamide, 2-{{2-{5-[3,6-dihydro-3-methyl-2,6-dioxo-4-(trifluoromethyl)-1(2H)-pyrimidinyl]-1,2-benzisothiazol-3-yl}-p-tolyl}oxy}-N-methyl-N-(methylsulfonyl)-]
CYPSE ([1]; 0.0320 kg/ha): 0.0
CYPSE ([1]; 0.0620 kg/ha): 2.0
CYPSE ([1]; 0.1250 kg/ha): 3.0
CYPSE ([1]; 0.2500 kg/ha): 7.0
CYPIR (Cyperus iria; 0.0320 kg/ha): 0.0
CYPIR (Cyperus iria; 0.0620 kg/ha): 0.0
CYPIR (Cyperus iria; 0.1250 kg/ha): 4.0
CYPIR (Cyperus iria; 0.2500 kg/ha): 6.0
ECHORC ([2]; 0.0320 kg/ha): 5.0
ECHORC ([2]; 0.0620 kg/ha): 7.0
ECHORC ([2]; 0.1250 kg/ha): 7.0
ECHORC ([2]; 0.2500 kg/ha): 8.0
ORYSAT ([3]; 0.0320 kg/ha): 4.0
ORYSAT ([3]; 0.0620 kg/ha): 5.0
ORYSAT ([3]; 0.1250 kg/ha): 6.0
ORYSAT ([3]; 0.2500 kg/ha): 7.0
SAGPY (Sagittaria pygmaea, L.; 0.0320 kg/ha): 0.0
SAGPY (Sagittaria pygmaea, L.; 0.0620 kg/ha): 3.0
SAGPY (Sagittaria pygmaea, L.; 0.1250 kg/ha): 4.0
SAGPY (Sagittaria pygmaea, L.; 0.2500 kg/ha): 7.0
MOOVA ([4]; 0.0320 kg/ha): 9.0
MOOVA ([4]; 0.0620 kg/ha): 9.0
MOOVA ([4]; 0.1250 kg/ha): 9.0
MOOVA ([4]; 0.2500 kg/ha): 9.0
